21 compounds from PubChem BioAssay AID330 (DTP/NCI, 2004) can be followed below.

The test system of the assay is P388 leukemia ip, CD2F1 mice, survival T/C. Description: NCI In Vivo Anticancer Drug Screen. Data for tumor model P388 Leukemia (intraperitoneal) in CD2F1 (CDF1) mice. As to conditions: endpoint: median survival time, higher = longer survival. An outline of the steps:
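Mice carrying the transplanted tumor received test compound or vehicle. Survival was recorded in each group, and the value is the treated-group measurement divided by that of the vehicle-treated control group.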

[1] abbreviates: dose: 5.0 mg/kg/injection, schedule: Q01DX009 (ip), vehicle: saline with Tween-80.
Where [2] appears, read: dose: 10.0 mg/kg/injection, schedule: Q01DX009 (ip), vehicle: saline with Tween-80.
Where [3] appears, read: dose: 25.0 mg/kg/injection, schedule: Q01DX009 (ip), vehicle: saline with Tween-80.
Where [4] appears, read: dose: 50.0 mg/kg/injection, schedule: Q01DX009 (ip), vehicle: saline.
Setting [5] is: dose: 100.0 mg/kg/injection, schedule: Q01DX009 (ip), vehicle: saline.
The mark [6] stands for this setting: dose: 50.0 mg/kg/injection, schedule: Q01DX005 (ip), vehicle: saline with Tween-80.
The mark [7] stands for this setting: dose: 50.0 mg/kg/injection, schedule: Q01DX005 (ip), vehicle: Klucel (hydroxypropylcellulose) (HPC).
[8] abbreviates: dose: 100.0 mg/kg/injection, schedule: Q01DX005 (ip), vehicle: Klucel (hydroxypropylcellulose) (HPC).
The mark [9] stands for this setting: dose: 200.0 mg/kg/injection, schedule: Q01DX005 (ip), vehicle: Klucel (hydroxypropylcellulose) (HPC).
Where [10] appears, read: dose: 50.0 mg/kg/injection, schedule: Q01DX009 (ip), vehicle: Klucel (hydroxypropylcellulose) (HPC).
[11] abbreviates: dose: 100.0 mg/kg/injection, schedule: Q01DX009 (ip), vehicle: Klucel (hydroxypropylcellulose) (HPC).

Each structure is given as a SMILES string. Values joined by “and” are separate entries in the source; they are usually repeats but may differ in a detail not shown here. Identical values can stand only once. Inconclusive results and toxic doses are left out.

Take `CC(=O)Nc1cccc(OCc2cccc(N3C(N)=NC(N)=NC3(C)C)c2)c1`: the T/C was 99 % of control (dose: 1.56 mg/kg/injection, schedule: Q01DX009 (ip), vehicle: distilled water + Tween-80); 99 % of control (dose: 3.12 mg/kg/injection, schedule: Q01DX009 (ip), vehicle: distilled water + Tween-80); 105 % of control (dose: 6.25 mg/kg/injection, schedule: Q01DX009 (ip), vehicle: distilled water + Tween-80); 105 % of control (dose: 6.25 mg/kg/injection, schedule: Q01DX009 (ip), vehicle: saline); 105 % of control (dose: 12.5 mg/kg/injection, schedule: Q01DX009 (ip), vehicle: distilled water + Tween-80); 101 % of control (dose: 12.5 mg/kg/injection, schedule: Q01DX009 (ip), vehicle: saline). Besides, where the note is “dose: 25.0 mg/kg/injection, schedule: Q01DX009 (ip), vehicle: saline”, the T/C was 117 % of control.

Take `COC1=C(N=[N+]=[N-])C(=O)C(OC)=C(N=[N+]=[N-])C1=O`: the T/C was 90 % of control under setting [1]; 90 % of control under setting [2]; 100 % of control (dose: 20.0 mg/kg/injection, schedule: Q01DX009 (ip), vehicle: saline with Tween-80).

Regarding `CN(C)c1ccc(C(=NNC(N)=S)c2ccc(N(C)C)cc2)cc1`, the T/C is 96 % of control (dose: 12.5 mg/kg/injection, schedule: Q04DX003 (ip), vehicle: Klucel (hydroxypropylcellulose) (HPC)); 105 % of control (dose: 25.0 mg/kg/injection, schedule: Q04DX003 (ip), vehicle: Klucel (hydroxypropylcellulose) (HPC)); 99 % of control and 108 % of control (dose: 50.0 mg/kg/injection, schedule: Q04DX003 (ip), vehicle: Klucel (hydroxypropylcellulose) (HPC)).

Consider `O=C(NCCN(C(=O)C12CC3CC(CC(C3)C1)C2)c1ccc(F)cc1)C12CC3CC(CC(C3)C1)C2`, for which the T/C was 105 % of control (dose: 6.25 mg/kg/injection, schedule: Q01DX009 (ip), vehicle: saline with Tween-80); 92 % of control (dose: 12.5 mg/kg/injection, schedule: Q01DX009 (ip), vehicle: saline with Tween-80); 100 % of control under setting [3].

In the case of `C[C@H](N)C(=O)N[C@@H]1[C@H]2C(=C(O)C[C@@H](O)[C@@H]2O)C(=O)O[C@]1(C)C(Cl)Cl`, the T/C is, setting by setting: (dose: 0.78 mg/kg/injection, schedule: Q01DX009 (ip), vehicle: Klucel (hydroxypropylcellulose) (HPC)) 150 % of control and 167 % of control; (dose: 1.56 mg/kg/injection, schedule: Q01DX009 (ip), vehicle: Klucel (hydroxypropylcellulose) (HPC)) 161 % of control and 187 % of control and 205 % of control; (dose: 3.12 mg/kg/injection, schedule: Q01DX009 (ip), vehicle: Klucel (hydroxypropylcellulose) (HPC)) 117 % of control and 118 % of control.

Take `O=c1c(CCl)c(-c2ccc([N+](=O)[O-])cc2)sc2ccccc12`: the T/C by setting is: (dose: 100.0 mg/kg/injection, schedule: Q04DX002 (ip), vehicle: saline with Tween-80) 100 % of control; (dose: 200.0 mg/kg/injection, schedule: Q04DX002 (ip), vehicle: saline with Tween-80) 98 % of control; (dose: 400.0 mg/kg/injection, schedule: Q04DX002 (ip), vehicle: saline with Tween-80) 92 % of control.

`CCSC(=S)N=Nc1c(O)n(C)c2ccccc12`: the T/C reads like this: under setting [4], 93 % of control; under setting [5], 94 % of control.

On to `O=C1C=CC(=Nc2ccccc2)O1`, for which the T/C is 100 % of control (dose: 2.5 mg/kg/injection, schedule: Q01DX009 (ip), vehicle: saline with Tween-80); 100 % of control under setting [1]; 95 % of control under setting [2].

As for `Clc1ccccc1-c1nnc(-c2cccc(-c3nnc(-c4ccccc4Cl)s3)c2)s1`, the T/C is, setting by setting: under setting [6], 91 % of control; (dose: 100.0 mg/kg/injection, schedule: Q01DX005 (ip), vehicle: saline with Tween-80) 89 % of control; (dose: 200.0 mg/kg/injection, schedule: Q01DX005 (ip), vehicle: saline with Tween-80) 90 % of control.

As to `CC(C)CCCC(C)CCOCCN1CCCCC1` (stereo unspecified), the T/C by setting is: (dose: 12.5 mg/kg/injection, schedule: Q01DX005 (ip), vehicle: saline with Tween-80) 100 % of control; (dose: 25.0 mg/kg/injection, schedule: Q01DX005 (ip), vehicle: saline with Tween-80) 113 % of control; under setting [6], 109 % of control and 114 % of control.

For the compound `COc1cc(OCc2ccccc2)c(CC(=O)O)c([N+](=O)[O-])c1`, the T/C was 100 % of control (dose: 100.0 mg/kg/injection, schedule: Q01DX001 (ip), vehicle: saline with Tween-80); 100 % of control (dose: 200.0 mg/kg/injection, schedule: Q01DX001 (ip), vehicle: saline with Tween-80); 90 % of control (dose: 400.0 mg/kg/injection, schedule: Q01DX001 (ip), vehicle: saline with Tween-80).

For `Oc1c(Cl)cc(Cl)cc1C=NCCN(CCN=Cc1cc(Cl)cc(Cl)c1O)CCN=Cc1cc(Cl)cc(Cl)c1O`, the T/C runs as follows: under setting [7], 98 % of control; under setting [8], 92 % of control; under setting [9], 101 % of control.

Take `CCOC(=O)NCCCCC([NH-])C(=O)O.CCOC(=O)NCCCCC([NH-])C(=O)O.[Cu+2]` (stereo unspecified): the T/C under setting [4] is 101 % of control and the T/C under setting [5] was 92 % of control.

In the case of `CCOC(=O)N1OC2C=CC1CC2` (stereo unspecified), the T/C was 97 % of control (dose: 60.0 mg/kg/injection, schedule: Q01DX005 (ip), vehicle: saline with Tween-80); 102 % of control (dose: 120.0 mg/kg/injection, schedule: Q01DX005 (ip), vehicle: saline with Tween-80); 100 % of control (dose: 240.0 mg/kg/injection, schedule: Q01DX005 (ip), vehicle: saline with Tween-80).

As to `CCO/C=N\Nc1ccc2nnc(Cl)n2n1`, the T/C is, setting by setting: under setting [4], 92 % of control; under setting [5], 103 % of control; (dose: 200.0 mg/kg/injection, schedule: Q01DX009 (ip), vehicle: saline) 93 % of control.

Regarding `CC(NC(=O)C(Cc1cnc[nH]1)NC(=O)OCc1ccccc1)C(=O)O` (stereo unspecified), the T/C under setting [7] was 96 % of control, the T/C under setting [8] was 96 % of control and the T/C under setting [9] was 96 % of control.

Turning to `CC1=C(O)c2cc3c(cc2C(=O)C1=O)OCO3`, the T/C was 98 % of control (dose: 60.0 mg/kg/injection, schedule: Q01DX005 (ip), vehicle: Klucel (hydroxypropylcellulose) (HPC)); 88 % of control (dose: 120.0 mg/kg/injection, schedule: Q01DX005 (ip), vehicle: Klucel (hydroxypropylcellulose) (HPC)); 92 % of control (dose: 240.0 mg/kg/injection, schedule: Q01DX005 (ip), vehicle: Klucel (hydroxypropylcellulose) (HPC)).

`COC(=O)c1ccccc1NC(=O)CN1C(=O)c2ccccc2C1=O`: the T/C (dose: 100.0 mg/kg/injection, schedule: Q04DX003 (ip), vehicle: saline with Tween-80) is 96 % of control; the T/C (dose: 200.0 mg/kg/injection, schedule: Q04DX003 (ip), vehicle: saline with Tween-80) is 102 % of control; the T/C (dose: 400.0 mg/kg/injection, schedule: Q04DX003 (ip), vehicle: saline with Tween-80) was 88 % of control.

On to `Cc1ccc(S(=O)(=O)N/N=C/c2ccccc2Cl)cc1`, for which the T/C (dose: 6.25 mg/kg/injection, schedule: Q01DX009 (ip), vehicle: Klucel (hydroxypropylcellulose) (HPC)) was 94 % of control; the T/C (dose: 12.5 mg/kg/injection, schedule: Q01DX009 (ip), vehicle: Klucel (hydroxypropylcellulose) (HPC)) was 98 % of control; the T/C (dose: 25.0 mg/kg/injection, schedule: Q01DX009 (ip), vehicle: Klucel (hydroxypropylcellulose) (HPC)) is 106 % of control; the T/C under setting [3] is 106 % of control; the T/C under setting [10] was 104 % of control; the T/C (dose: 50.0 mg/kg/injection, schedule: Q01DX009 (ip), vehicle: saline with Tween-80) is 104 % of control. Moreover, the T/C under setting [11] is 106 % of control; the T/C (dose: 100.0 mg/kg/injection, schedule: Q01DX009 (ip), vehicle: saline with Tween-80) was 106 % of control; the T/C (dose: 200.0 mg/kg/injection, schedule: Q01DX009 (ip), vehicle: saline with Tween-80) was 100 % of control.

Consider `O=[N+]([O-])c1cccc(C=Nc2ccc(/C=C/C3(CCl)OCCO3)cc2)c1`, for which the T/C by setting is: under setting [10], 98 % of control; under setting [11], 97 % of control; (dose: 200.0 mg/kg/injection, schedule: Q01DX009 (ip), vehicle: Klucel (hydroxypropylcellulose) (HPC)) 91 % of control.

With `COC(=O)C1=C/CCCN(C=O)/C=C\1C(=O)OC`, the T/C reads like this: (dose: 100.0 mg/kg/injection, schedule: Q04DX003 (ip), vehicle: alcohol) 103 % of control; (dose: 200.0 mg/kg/injection, schedule: Q04DX003 (ip), vehicle: alcohol) 103 % of control; (dose: 400.0 mg/kg/injection, schedule: Q04DX003 (ip), vehicle: alcohol) 103 % of control.
